Patent US9480259B2, “Pyrazolopyrans having herbicidal and pharmaceutical properties” (BASF SE, priority 2012, dated 2016)

Molecular target: Arabidopsis thaliana SHMT
Experiment: SHMT activity assay (ED50 SHMT), coupled with N5,N10-CH2-THF dehydrogenase, NADH at 340 nm
Assay type: biochemical
In short: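 His-tagged SHMT purified on Ni-NTA. NADH formation followed at 340 nm for 30 min; ED50 from inhibition of initial velocity.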

[1] = Table 2, values given as upper bounds
[2] = Table 2, Arabidopsis thaliana SHMT enzyme assay, values given as upper bounds
[3] = Arabidopsis thaliana SHMT enzyme assay, values given as upper bounds
[4] = inhibition of initial velocity of Arabidopsis thaliana SHMT

Compound: CCC1(c2cc(Cl)cc(Oc3ccccc3)c2)C(C#N)=C(N)Oc2[nH]nc(C)c21 (stereo not shown) [Compound 2.113.]
- EC50 [1]: < 100 nM

Compound: CCC1(c2cc(Cl)cc(Cl)c2)C(C#N)=C(N)Oc2[nH]ncc21 (stereo not shown) [Compound 2.62.]
- EC50 [1]: < 10000 nM

Compound: CCC1(c2ccc(NC(=O)OC)cc2)C(C#N)=C(N)Oc2[nH]nc(C)c21 (stereo not shown) [Compound 2.80.]
- EC50 [1]: < 1000 nM

Compound: CCc1n[nH]c2c1C(c1cccc(C(F)(F)F)c1)(C1CCC1)C(C#N)=C(N)O2 (stereo not shown) [Compound 2.170.]
- EC50 [1]: < 100 nM

Compound: N#CC1=C(N)Oc2[nH]ncc2C1(c1cc(C#N)cc(-c2cscn2)c1)C1CCC1 (stereo not shown) [Compound 2.352]
- EC50 [2]: < 100 nM

Compound: Cc1n[nH]c2c1C(c1cc(C#N)cc(-c3cccc(C(F)(F)F)c3)c1)(C1CCC1)C(C#N)=C(N)O2 (stereo not shown) [Compound 2.325]
- EC50 [2]: < 10 nM

Compound: Cc1n[nH]c2c1C(c1cc(Cl)cc(C(=O)OCc3ccccc3)c1)(C1CCC1)C(C#N)=C(N)O2 (stereo not shown) [Compound 2.381]
- EC50 [2]: < 10 nM

Compound: Cc1n[nH]c2c1C(c1cc(C#N)cc(-c3ccc(OCC(=O)O)cc3)c1)(C1CCC1)C(C#N)=C(N)O2 (stereo not shown) [Compound 2.538]
- EC50 [1]: < 10 nM

Compound: Cc1n[nH]c2c1C(c1cc(C#N)cc(C(F)(F)F)c1)(C1CC=CC1)C(C#N)=C(N)O2 (stereo not shown) [Compound 2.367]
- EC50 [2]: < 10 nM

Compound: Cc1n[nH]c2c1C(CC(C)C)(c1cc(C(F)(F)F)cc(C(F)(F)F)c1)C(C#N)=C(N)O2 (stereo not shown) [Compound 2.108.]
- EC50 [1]: < 100 nM

Compound: COCCOCC(=O)N(C)c1cc(C#N)cc(C2(C(C)C)C(C#N)=C(N)Oc3[nH]nc(C)c32)c1 (stereo not shown) [Compound 2.666]
- EC50 [3]: < 10 nM

Compound: Cc1n[nH]c2c1C(c1cc(C#N)cc(N(C)C(=O)Cc3nnn[nH]3)c1)(C(C)C)C(C#N)=C(N)O2 (stereo not shown) [Compound 2.721]
- EC50 [3]: < 100 nM

Compound: Cc1n[nH]c2c1C(c1cncc(C(F)(F)F)c1)(C1CCC1)C(C#N)=C(N)O2 (stereo not shown) [Compound 4.35]
- EC50 [4]: < 10 nM

Compound: CCc1n[nH]c2c1C(CC)(c1cc(C#N)cc(C(F)(F)F)c1)C(C#N)=C(N)O2 (stereo not shown) [Compound 2.574]
- EC50 [1]: < 10 nM

Compound: CCC1(c2cccc(Cl)c2)C(C#N)=C(N)Oc2[nH]nc(C(F)F)c21 (stereo not shown) [Compound 2.165.]
- EC50 [1]: < 1000 nM

Compound: Cc1n[nH]c2c1C(c1ccc(Cl)c(Cl)c1)(C1CCCC1)C(C#N)=C(N)O2 (stereo not shown) [Compound 2.210.]
- EC50 [1]: < 100 nM

Compound: Cc1n[nH]c2c1C(c1cc(-c3cccc(C(F)(F)F)c3)cs1)(C1CCC1)C(C#N)=C(N)O2 (stereo not shown) [Compound 4.68]
- EC50 [4]: < 1000 nM

Compound: CCOc1n[nH]c2c1C(c1cc(Br)cc(C#N)c1)(C1CCC1)C(C#N)=C(N)O2 (stereo not shown) [Compound 2.389]
- EC50 [2]: < 10 nM

Compound: Cc1n[nH]c2c1C(c1cc(Cl)cc(Oc3ccc(F)cc3)c1)(C1CC1)C(C#N)=C(N)O2 (stereo not shown) [Compound 2.189.]
- EC50 [1]: < 100 nM

Compound: Cc1n[nH]c2c1C(c1cc(C#N)cc(-c3ccc(F)c(C(=O)O)c3)c1)(C1CCC1)C(C#N)=C(N)O2 (stereo not shown) [Compound 2.558]
- EC50 [1]: < 10 nM

Compound: N#CC1=C(N)Oc2[nH]ncc2C1(c1cc(C#N)cc(C(F)(F)F)c1)C1CCC1 (stereo not shown) [Compound 2.321]
- EC50 [2]: < 10 nM

Compound: CC(=O)N(C)c1cc(C#N)cc(C2(C3(F)CC3)C(C#N)=C(N)Oc3[nH]nc(C)c32)c1 (stereo not shown) [Compound 2.451]
- EC50 [1]: < 10 nM

Compound: Cc1n[nH]c2c1C(c1cc(Br)cc(Br)c1)(C1CC=CC1)C(C#N)=C(N)O2 (stereo not shown) [Compound 2.300]
- EC50 [2]: < 10 nM

Compound: CC(C)C1(c2cc(Cl)cc(Cl)c2)C(C#N)=C(N)Oc2[nH]nc(C3CC3)c21 (stereo not shown) [Compound 2.136.]
- EC50 [1]: < 100 nM

Compound: Cc1n[nH]c2c1C(c1cc(Br)cc(Br)c1)(C1CCC1)C(C#N)=C(N)O2 (stereo not shown) [Compound 2.232]
- EC50 [2]: < 10 nM

Compound: Cc1n[nH]c2c1C(c1ccc(-c3cccs3)s1)(C1CCC1)C(C#N)=C(N)O2 (stereo not shown) [Compound 4.1]
- EC50 [4]: < 10 nM

Compound: COc1ccc(C2(C3(F)CC3)C(C#N)=C(N)Oc3[nH]nc(C)c32)cc1Cl (stereo not shown) [Compound 2.260]
- EC50 [2]: < 10 nM

Compound: COc1ccc(C2(C3(F)CC3)C(C#N)=C(N)Oc3[nH]nc(C)c32)cc1C(F)(F)F (stereo not shown) [Compound 2.267]
- EC50 [2]: < 10 nM

Compound: CC(C)C1(c2cc(C#N)cc(C(F)(F)F)c2)C(C#N)=C(N)Oc2[nH]ncc21 (stereo not shown) [Compound 2.337]
- EC50 [2]: < 10 nM

Compound: CCC1(c2ccc(C(F)(F)F)cc2)C(C#N)=C(N)Oc2[nH]nc(C)c21 (stereo not shown) [Compound 2.30.]
- EC50 [1]: < 10000 nM

Compound: N#CC1=C(N)Oc2[nH]ncc2C1(c1cc(C#N)cc(C(=O)O)c1)C1CCC1 (stereo not shown) [Compound 2.372]
- EC50 [2]: < 10000 nM

Compound: CCC1(c2ccc(OS(=O)(=O)C(C)C)c(C)c2)C(C#N)=C(N)Oc2[nH]nc(C)c21 (stereo not shown) [Compound 2.54.]
- EC50 [1]: < 1000 nM

Compound: COC(=O)c1cccc(-c2cc(C#N)cc(C3(C4CCC4)C(C#N)=C(N)Oc4[nH]nc(C)c43)c2)c1 (stereo not shown) [Compound 2.453]
- EC50 [1]: < 10 nM

Compound: Cc1n[nH]c2c1C(c1cc(Cl)cc(-c3ccccn3)c1)(C1CCC1)C(C#N)=C(N)O2 (stereo not shown) [Compound 2.318]
- EC50 [2]: < 10 nM

Compound: Cc1n[nH]c2c1C(c1cc(Cl)cc(Cl)c1)(C(C)(F)F)C(C#N)=C(N)O2 (stereo not shown) [Compound 2.653]
- EC50 [3]: < 100 nM

Compound: COc1ccc(C2(C3CCC3)C(C#N)=C(N)Oc3[nH]nc(C)c32)cc1Cl (stereo not shown) [Compound 2.178.]
- EC50 [1]: < 10 nM

Compound: CCC1(c2ccc(Oc3ccc(C(F)(F)F)cc3Cl)c(C)c2)C(C#N)=C(N)Oc2[nH]nc(C3CC3)c21 (stereo not shown) [Compound 2.164.]
- EC50 [1]: < 10000 nM

Compound: Cc1n[nH]c2c1C(c1ccc(OCc3ccccc3)c(Cl)c1)(C1CC1)C(C#N)=C(N)O2 (stereo not shown) [Compound 2.186.]
- EC50 [1]: < 100 nM

Compound: COc1ccc(C2(C(C)(C)F)C(C#N)=C(N)Oc3[nH]nc(C)c32)cc1Cl (stereo not shown) [Compound 2.620]
- EC50 [1]: < 10 nM

Compound: Cc1n[nH]c2c1C(c1cc(C#N)cc(N(C)Cc3nnn[nH]3)c1)(C1CCC1)C(C#N)=C(N)O2 (stereo not shown) [Compound 2.691]
- EC50 [3]: < 100 nM

Compound: Cc1n[nH]c2c1C(c1cc(Cl)cc(SCc3nnn[nH]3)c1)(C1CCC1)C(C#N)=C(N)O2 (stereo not shown) [Compound 2.667]
- EC50 [3]: < 10 nM

Compound: COc1ccc(C2(C(C)C)C(C#N)=C(N)Oc3[nH]nc(C)c32)cc1C(F)(F)F (stereo not shown) [Compound 2.144.]
- EC50 [1]: < 10 nM

Compound: Cc1n[nH]c2c1C(c1cc(Br)cc(Br)c1)(C(C)F)C(C#N)=C(N)O2 (stereo not shown) [Compound 2.685]
- EC50 [3]: < 10 nM

Compound: Cc1n[nH]c2c1C(c1cc(N3CCOCC3)cc(C(F)(F)F)c1)(C1CCC1)C(C#N)=C(N)O2 (stereo not shown) [Compound 2.271]
- EC50 [2]: < 10 nM

Compound: CCc1n[nH]c2c1C(c1cc(Cl)cc(Cl)c1)(C1CCC1)C(C#N)=C(N)O2 (stereo not shown) [Compound 2.155.]
- EC50 [1]: < 100 nM

Compound: Cc1n[nH]c2c1C(c1cc(C#N)cc(C(=O)OCc3ccccc3)c1)(C1CCC1)C(C#N)=C(N)O2 (stereo not shown) [Compound 2.370]
- EC50 [2]: < 10 nM

Compound: COC(=O)c1csc(-c2cc(C#N)cc(C3(C(C)C)C(C#N)=C(N)Oc4[nH]nc(C)c43)c2)c1 (stereo not shown) [Compound 2.679]
- EC50 [3]: < 10 nM

Compound: Cc1n[nH]c2c1C(CC(C)C)(c1cc(Cl)cc(Cl)c1)C(C#N)=C(N)O2 (stereo not shown) [Compound 2.125.]
- EC50 [1]: < 100 nM

Compound: CCc1n[nH]c2c1C(c1cccc(Cl)c1)(C1CCC1)C(C#N)=C(N)O2 (stereo not shown) [Compound 2.173.]
- EC50 [1]: < 100 nM

Compound: Cc1n[nH]c2c1C(c1cc(Cl)c3c(c1)OCCO3)(C(C)C)C(C#N)=C(N)O2 (stereo not shown) [Compound 4.15]
- EC50 [4]: < 10 nM

Compound: Cc1n[nH]c2c1C(c1cc(Cl)cc(-c3nccs3)c1)(C1CCC1)C(C#N)=C(N)O2 (stereo not shown) [Compound 2.320]
- EC50 [2]: < 10 nM

Compound: Cc1n[nH]c2c1C(c1ccc(CC#N)c(-c3nnn[nH]3)c1)(C1CCC1)C(C#N)=C(N)O2 (stereo not shown) [Compound 2.708]
- EC50 [3]: < 10000 nM

Compound: CCC1(c2ccc(OC(=O)C(C)(C)C)c(C)c2)C(C#N)=C(N)Oc2[nH]nc(C)c21 (stereo not shown) [Compound 2.52.]
- EC50 [1]: < 1000 nM

Compound: CCC1(c2ccc(Oc3ccccc3)cc2)C(C#N)=C(N)Oc2[nH]nc(C(C)C)c21 (racemic) [Compound 2.160.]
- EC50 [1]: < 10000 nM

Compound: CCc1n[nH]c2c1C(CC)(c1cc(C(F)(F)F)cc(C(F)(F)F)c1)C(C#N)=C(N)O2 (stereo not shown) [Compound 2.84.]
- EC50 [1]: < 100 nM

Compound: Cc1n[nH]c2c1C(c1cc(C#N)cc(N(C)C(=O)CCCC(=O)O)c1)(C(C)C)C(C#N)=C(N)O2 (stereo not shown) [Compound 2.694]
- EC50 [3]: < 10 nM

Compound: COc1n[nH]c2c1C(c1cc(Br)cc(C#N)c1)(C1(F)CC1)C(C#N)=C(N)O2 (stereo not shown) [Compound 2.394]
- EC50 [2]: < 100 nM

Compound: CCCc1n[nH]c2c1C(CC)(c1cc(Cl)cc(Cl)c1)C(C#N)=C(N)O2 (stereo not shown) [Compound 2.110.]
- EC50 [1]: < 1000 nM

Compound: Cc1n[nH]c2c1C(c1cc(-c3nnn[nH]3)cc(C(F)(F)F)c1)(C1CCC1)C(C#N)=C(N)O2 (stereo not shown) [Compound 2.355]
- EC50 [2]: < 10 nM

Compound: CCC1(c2cc(F)cc(F)c2F)C(C#N)=C(N)Oc2[nH]nc(C)c21 (stereo not shown) [Compound 3.4]
- EC50 [4]: < 10000 nM

Compound: CCC1(c2cccc(C(F)(F)F)c2)C(C#N)=C(N)Oc2[nH]nc(C)c21 (stereo not shown) [Compound 2.31.]
- EC50 [1]: < 1000 nM

Compound: N#CC1=C(N)Oc2[nH]ncc2C1(c1cc(Cl)cc(I)c1)C1CCC1 (stereo not shown) [Compound 2.298]
- EC50 [2]: < 10 nM

Compound: Cc1n[nH]c2c1C(c1ccc(O)c(Cl)c1)(C1CCC1)C(C#N)=C(N)O2 (stereo not shown) [Compound 2.485]
- EC50 [1]: < 10 nM

Compound: N#CC1=C(N)Oc2[nH]nc(C(F)F)c2C1(c1ccc(Cl)s1)C1CC1 (stereo not shown) [Compound 4.83]
- EC50 [4]: < 10000 nM

Compound: CCOC(=O)CS(=O)(=O)N(C)c1cc(C#N)cc(C2(C(C)C)C(C#N)=C(N)Oc3[nH]nc(C)c32)c1 (stereo not shown) [Compound 2.725]
- EC50 [3]: < 100 nM

Compound: Cc1n[nH]c2c1C(c1ccc3c(c1)OC(F)(F)O3)(C1(F)COC1)C(C#N)=C(N)O2 (racemic) [Compound 4.84]
- EC50 [4]: < 10000 nM

Compound: N#CC1=C(N)Oc2[nH]ncc2C1(c1cc(Cl)cc(Cl)c1)C1CCCC1 (stereo not shown) [Compound 2.256]
- EC50 [2]: < 10000 nM
